# Literature values in paper PMC4854401, “Biochemical Mechanisms for Geographical Adaptations to Novel Toxin Exposures in Butterflyfish” (PLoS ONE, 2016).
# System: CYP activity
# Design: method as in PMID 24272422
# Details: black swallowtails (Papilio polyxenes), dose-dependent; cited from earlier work
smiles,measurement,value
COc1c2occc2cc2ccc(=O)oc12 [xanthotoxin],"induced CYP activity, increase",seven fold
